Measurements from US20260216294A1, “BETA 2-ADRENERGIC RECEPTOR AGONISTS FOR TREATMENT OR PREVENTION OF MUSCLE WASTING” (ATROGI AB, priority 2023, published 2026).

Experiments:
[1] = tested on: L6-myotubes; test: Glucose uptake in differentiated L6-myotubes (Biological Example 2); assay type: cell-based; conditions: read-out: Biological example 2 (GU)
Method in brief: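 Uptake was quantified as radioactivity in 0.2 M NaOH lysates after a 10 min pulse of 50 nM ^3H-2-deoxyglucose. The pulse followed two agonist exposures at 1×10^−5 M final (isoprenaline or test compound): 1 h 40 min, then 20 min in glucose-free medium after washing. L6 myotubes had been starved overnight in medium with 0.5% fatty-acid-free BSA.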

[2] = tested on: L6-myotubes; test: Measurement of intracellular cAMP levels in differentiated L6-myotubes (Biological Example 3); assay type: cell-based; conditions: for Emax at 10 µM: 0.25 h
Method in brief: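 Intracellular cAMP quantified by AlphaScreen after ethanol extraction and lysis of L6 myotubes. Cells were serum-starved overnight, then exposed for 15 min to compound (final 1×10^−5 M) or isoprenaline in IBMX-containing (1 mM) HBSS buffer, pH 7.4.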

[3] = glucose uptake in differentiated L6-myotubes, compound at 10 μM, activity relative to isoproterenol at 10 μM
[4] = intracellular cAMP in differentiated L6-myotubes, compound at 10 μM, activity relative to isoproterenol at 10 μM
[5] = glucose uptake, compound at 10 μM relative to isoproterenol at 10 μM
[6] = intracellular cAMP, compound at 10 μM relative to isoproterenol at 10 μM

Row | Structure (SMILES) | Emax at 10 µM [1, 3] | Emax at 10 µM [2, 4] | Emax at 10 µM [1, 5] | Emax at 10 µM [2, 6] | Biological example 3 (CAMP) [2, 4]
1 | COCC12CCC([C@@H](O)c3cccc(F)c3)(CC1)N2 [Compound 329, (S)-(m-fluorophenyl){4-(methoxymethyl)-7-azabicyclo[[2.2.1]]hept-1-yl}methanol] | 25 to 50% | < 25% |  |  | 
2 | Oc1ccc(C(O)CNCCC2CC2)cc1 (stereo not shown) [Compound 24, p-[2-(2-cyclopropylethylamino)-1-hydroxyethyl]phenol] |  |  | 50 to 75% | < 25% | 
3 | O[C@@H](CNC[C@H]1CC[C@@H](O)CC1)c1cncc(F)c1 [Compound 269, (R)-1-(5-fluoro-3-pyridyl)-2-({[(1s,4S)-4-hydroxycyclohexyl]methyl}amino)-1-ethanol] | 25 to 50% | < 25% |  |  | 
4 | CCCCNC[C@H](O)c1csc(N)n1 [Compound 71, (S)-1-(2-amino-1,3-thiazol-4-yl)-2-(butylamino)-1-ethanol] |  |  | 25 to 50% | < 25% | 
5 | CCC[C@@H]1CC[C@@H]([C@H](O)c2cccc(F)c2)N1 [Compound 132, (R)-[(2S,5R)-5-propyl-2-pyrrolidinyl](m-fluorophenyl)methanol] |  |  | 25 to 50% | < 25% | 
6 | CCS(=O)(=O)N[C@H]1CC[C@@H](CC(C)(C)NC[C@H](O)c2cncc(F)c2)CC1 [Compound 524] | 50 to 75% | < 25% |  |  | 
7 | CC(=O)N[C@H]1CC[C@H](CC(C)(C)NC[C@H](O)c2cncc(F)c2)CC1 [Compound 357] | > 75% | < 25% |  |  | 
8 | CC(C)(C)NC[C@H](O)c1cncc(Cl)c1 [Compound 138, (R)-2-(tert-butylamino)-1-(5-chloro-3-pyridyl)-1-ethanol] |  |  | > 75% | > 75% | 
9 | Oc1ccc(C(O)CNCCCC2CCCCC2)cc1 (stereo not shown) [Compound 21, 2-(3-cyclohexylpropylamino)-1-(p-hydroxyphenyl)-1-ethanol] |  |  | > 75% | < 25% | 
10 | CC1(C)CCC[C@@H]([C@@H](O)c2cccc(F)c2)N1 [Compound 191] |  |  | 25 to 50% | < 25% | 
11 | CC(C)(C)NC[C@H](O)c1ncccc1Cl [Compound 146, (S)-2-(tert-butylamino)-1-(3-chloro-2-pyridyl)-1-ethanol] |  |  | 25 to 50% | < 25% | 
12 | CC(C)(C[C@H]1CC[C@H](C(=O)O)CC1)NC[C@H](O)c1cncc(F)c1 [Compound 356, (1R,4r)-4-{2-[(R)-2-(5-fluoro-3-pyridyl)-2-hydroxyethylamino]-2-methylpropyl} cyclohexanecarboxylic acid] | < 25% | < 25% |  |  | 
13 | O[C@@H](c1cncc(F)c1)C12CCC(CCc3ccc(OC(F)(F)F)cc3)(CC1)N2 [Compound 543, (S)-(5-fluoro-3-pyridyl){4-[2-(p-trifluoromethoxyphenyl)ethyl]-7-azabicyclo[[2.2.1]]hept-1-yl}methanol] | < 25% | < 25% |  |  | 
14 | CC(C)(C[C@H]1CC[C@H](N)CC1)NC[C@H](O)c1cccc(F)c1 [Compound 371] | > 75% | < 25% |  |  | 
15 | CNS(=O)(=O)[C@H]1CC[C@H](CC(C)(C)NC[C@H](O)c2cncc(F)c2)CC1 [Compound 478, (R)-2-{1,1-dimethyl-2-[(1r,4R)-4-(methylaminosulfonyl)cyclohexyl]ethylamino}-1-(5-fluoro-3-pyridyl)-1-ethanol] | 25 to 50% | < 25% |  |  | 
16 | O[C@@H](CNCC[C@H]1CC[C@H](OCc2ccccc2)CC1)c1cccc(F)c1 [Compound 288, (R)-1-(m-fluorophenyl)-2-{2-[(1r,4R)-4-(benzyloxy)cyclohexyl]ethylamino}-1-ethanol] | 25 to 50% | < 25% |  |  | 
17 | CC(C)CS(=O)(=O)N[C@H]1CC[C@H](CC(C)(C)NC[C@H](O)c2cncc(F)c2)CC1 [Compound 526] | 50 to 75% | < 25% |  |  | 
18 | CCC[C@@H]1CC[C@H]([C@H](O)c2cccc(F)c2)N1 [Compound 58] |  |  | > 75% | 25 to 50% | 
19 | CC(=O)N[C@H]1CC[C@@H](CC(C)(C)NC[C@H](O)c2cccc(F)c2)CC1 [Compound 452] | > 75% | < 25% |  |  | 
20 | COc1ccc(C[C@@]2(C)CC[C@H]([C@H](O)c3cccc(F)c3)N2)cc1 [Compound 366, (R)-{(2R,5R)-5-[(p-methoxyphenyl)methyl]-5-methyl-2-pyrrolidinyl}(m-fluorophenyl)methanol] | > 75% | 25 to 50% |  |  | 
21 | CCC[C@H]1CC[C@@H]([C@H](O)c2cccc(F)c2)N1 [Compound 130, (R)-[(2S,5S)-5-propyl-2-pyrrolidinyl](m-fluorophenyl)methanol] |  |  | 25 to 50% | < 25% | 

Row | Structure (SMILES) | Emax at 10 µM [1, 3] | Emax at 10 µM [2, 4] | Emax at 10 µM [1, 5] | Emax at 10 µM [2, 6] | Biological example 3 (CAMP) [2, 4]
22 | COc1ccc(CCC23CCC([C@@H](O)c4cccc(F)c4)(CC2)N3)cc1 [Compound 539, (S)-(m-fluorophenyl){4-[2-(p-methoxyphenyl)ethyl]-7-azabicyclo[[2.2.1]]hept-1-yl}methanol] | < 25% | < 25% |  |  | 
23 | O[C@@H](c1cccc(F)c1)C12CCC(CCc3cccnc3)(CC1)N2 [Compound 445, (S)-(m-fluorophenyl){4-[2-(3-pyridyl)ethyl]-7-azabicyclo[[2.2.1]]hept-1-yl}methanol] | > 75% |  |  |  | − (if it less than 25% it is denoted with −)
24 | CC(C)(C)NC[C@H](O)c1ccccc1F [Compound 78, (R)-2-(tert-butylamino)-1-(o-fluorophenyl)-1-ethanol] |  |  | > 75% | 25 to 50% | 
25 | CC(=O)N[C@H]1CC[C@H](CC(C)(C)NC[C@H](O)c2cccc(F)c2)CC1 [Compound 383] | > 75% | 25 to 50% |  |  | 
26 | CS(=O)(=O)N(Cc1ccccc1)CC12CCC([C@@H](O)c3cccc(F)c3)(CC1)N2 [Compound 538, (S)-(4-{[(benzyl)-N-mesylamino]methyl}-7-azabicyclo[[2.2.1]]hept-1-yl)(m-fluorophenyl)methanol] | 50 to 75% | < 25% |  |  | 
27 | COC(=O)[C@H]1CC[C@@H](CCC(C)(C)NC[C@H](O)c2cccc(F)c2)CC1 [Compound 351, methyl (1S,4s)-4-{3-[(R)-2-(m-fluorophenyl)-2-hydroxyethylamino]-3-methylbutyl} cyclohexanecarboxylate] | > 75% | 25 to 50% |  |  | 
28 | CC(C)(C)NC[C@H](O)c1cccc(O)c1F [Compound 86, (R)-2-(tert-butylamino)-1-(2-fluoro-3-hydroxyphenyl)-1-ethanol] |  |  | 50 to 75% | 50 to 75% | 
29 | O[C@@H](CNC[C@H]1CC[C@@H](OCc2ccccc2)CC1)c1cncc(F)c1 [Compound 263, (R)-1-(5-fluoro-3-pyridyl)-2-({[(1s,4S)-4-(benzyloxy)cyclohexyl]methyl}amino)-1-ethanol] | > 75% | < 25% |  |  | 
30 | CCCCNCC(O)c1cc(O)cc(O)c1 (stereo not shown) [Compound 26, 5-[2-(butylamino)-1-hydroxyethyl]resorcinol] |  |  | 50 to 75% | < 25% | 
31 | CO[C@H]1CC[C@@H](CCNC[C@H](O)c2cccc(F)c2)CC1 [Compound 237, (R)-1-(m-fluorophenyl)-2-{2-[(1s,4S)-4-methoxycyclohexyl]ethylamino}-1-ethanol] | 50 to 75% | < 25% |  |  | 
32 | CCC[C@H]1CCC[C@@H]([C@@H](O)c2cccc(F)c2)N1 [Compound 119] |  |  | 25 to 50% | < 25% | 
33 | CS(=O)(=O)N[C@H]1CC[C@H](CNC[C@H](O)c2cccc(F)c2)CC1 [Compound 311] | 50 to 75% | < 25% |  |  | 
34 | CC12CCC([C@@H](O)c3cncc(F)c3)(CC1)N2 [Compound 184, (S)-(5-fluoro-3-pyridyl)(4-methyl-7-azabicyclo[[2.2.1]]hept-1-yl)methanol] |  |  | 50 to 75% | < 25% | 
35 | CC1(C)CC[C@H]([C@@H](O)c2cncc(F)c2)N1 [Compound 156] |  |  | < 25% | < 25% | 
36 | CC(C)(C[C@H]1CC[C@@H](N)CC1)NC[C@H](O)c1cncc(F)c1 [Compound 466] | 50 to 75% | < 25% |  |  | 
37 | CO[C@H]1CC[C@H](C[C@@H]2CC[C@H]([C@H](O)c3cncc(F)c3)N2)CC1 [Compound 333] | 25 to 50% | < 25% |  |  | 
38 | CC1(C)CC[C@@H]([C@H](O)c2cccc(O)c2)N1 [Compound 142, m-{(R)-[(S)-5,5-dimethyl-2-pyrrolidinyl] hydroxymethyl}phenol] |  |  | 25 to 50% | < 25% | 
39 | CC1(NC[C@H](O)c2cccc(F)c2)CCC1 [Compound 83, (R)-1-(m-fluorophenyl)-2-(1-methylcyclobutylamino)-1-ethanol] |  |  | > 75% | 25 to 50% | 
40 | CC(C)(NC[C@H](O)c1cccc(F)c1)[C@H]1CC[C@H](C(=O)O)CC1 [Compound 368, (1R,4r)-8-[(R)-2-(m-fluorophenyl)-2-hydroxyethylamino]-7-hydroxy-p-menthan-7-one] | 25 to 50% | < 25% |  |  | 
41 | CS(=O)(=O)Nc1cccc(CC23CCC([C@@H](O)c4cccc(F)c4)(CC2)N3)c1 [Compound 514, (S)-(m-fluorophenyl)(4-{[m-(mesylamino)phenyl]methyl}-7-azabicyclo[[2.2.1]]hept-1-yl)methanol] | 50 to 75% | < 25% |  |  | 
